Where no end group is shown, it is not given here.
What was measured:
HLA-A*0201 = target: T1, HLA-A*0201 (Homo sapiens, UniProt P04439, D140Y/D185E/D98H/E176V/E277Q/G131W/G231S/I119V/I121R/I166T/I218V/L300P/L318F/N151K/N90K/P208A/P217A/Q86G/Q94H/R138H/R169H/T345S); experiment: Relative affinity (RA) of peptides for HLA-A*0201 on T2 cells, flow cytometry with BB7.2; assay type: binding; details: for affinity for HLA-A*0201 (in words): low affinity = RA>5 and DC50<2 hours; for RA (relative affinity for HLA-A*0201): ratio of peptide concentration to reference peptide (HIVpol 589) concentration inducing 20% of fluorescence obtained with 100 μM reference, T2 cells, lower RA = stronger binding
T1 construct: prevent the expression at their surface of newly synthesized HLA-A*0201 molecules; endogenous in cells; host or cells: human T2 cells (TAP-deficient)
Description: The affinity of the selected peptides for HLA-A*0201 was defined by two parameters: the relative affinity (RA); which reflects the ability of the peptides to bind to HLA-A*0201, and the rate of dissociation of the HLA-A*0201/peptide complexes (DC50), which reflects their stability. The peptides with high affinity (RA<5 and DC50>2 hours) are potentially immunogenic, unlike the peptides with low affinity (RA>5 and DC50<2 hours).
Human T2 cells (FIRAT et al., Eur. J. Immunol., 29, 3112, 1999) (3×10^5 cells/ml), which are deficient in TAP transporters, are incubated at 37° C. for 16 hours with various concentrations (100 μM, 10 μM, 1 μM, 0.1 μM) of each test peptide in serum-free RPMI 1640 medium supplemented with 100 ng/ml of human β2-microglobulin. Next, they are washed twice and labeled with the monoclonal antibody BB7.2 (PARHAM et al., Hum. Immunol., 3, 4, 277-299, 1981) which is specific for the HLA-A*0201 molecule, and then with a goat anti-mouse Ig antibody coupled to fluorescein isothiocyanate (FITC).
The cells are then analyzed by flow cytometry. For each concentration of peptide, the specific HLA-A*0201 fluorescence is calculated as a percentage of the fluorescence obtained with 100 μM of a reference peptide (HIVpol 589; […] (SEQ ID No: 1)). The relative affinity (RA) is defined as the ratio of the concentration of each peptide that induces 20% of the fluorescence obtained with 100 μM of the reference peptide, to the concentration of the reference peptide that induces 20% of the fluorescence obtained with 100 μM of said reference peptide. The lower the relative affinity, the stronger the binding of the peptide to HLA-A*0201. The mean RA for each peptide is determined from at least three independent experiments. In all the experiments, 20% of the maximum fluorescence was obtained for 1 to 3 μM of the reference peptide.
The relative affinity (RA) of the selected variant peptides for HLA-A*0201 was measured as described in example 1.

RMAS-HHD target cells = experiment: Cytotoxicity assay with CTL lines 1R5 and 2R5 (HHD mice immunized with p911Y1V9) on peptide-loaded RMAS-HHD target cells; assay type: cell-based, murine; details: for CTL response (specific lysis) to RMAS-HHD cells loaded with the peptide: CTL lines 1R5 and 2R5 induced with p911Y1V9, 10 μM peptide
Description: Two CTL lines, called 1R5 and 2R5, were established from the spleen cells of HHD mice immunized with the variant peptide p911Y1V9, according to the same protocol as that described in example 1.
Cytotoxicity assays were carried out as described in example 2. For this, RMAS-HHD target cells loaded with 10 μM of the test peptides (variant or native peptides) were incubated in the presence of cells of the two CTL lines 1R5 and 2R5.
The percentage specific lysis values observed in the presence of the 1R5 (□) and 2R5 (▪) lines and for the various peptides tested are given in FIG. 5.

RMAS-HHD cells = experiment: Intracellular IFNγ production of CTL line 1R5 with peptide-loaded RMAS-HHD cells; assay type: cell-based, murine; details: for response of CD8+ cells of CTL line 1R5 to RMAS-HHD cells loaded with the peptide: intracellular IFNγ production
Description: The response of the cells of the CTL line 1R5 with respect to the RMAS-HHD cells loaded with the various peptides was also evaluated by assaying the intracellular IFNγ production.
For this, the cells of the CTL line 1R5 are incubated in the presence of RMAS-HHD cells loaded with the variant peptide p911Y1V9, the native peptides HER1 911, HER2,3 911 or HER4 911, or an irrelevant peptide, and in the presence of 20 μg/ml of Brefeldine-A (Sigma). After 6 hours, the cells are washed, labeled with an anti-CD8 antibody conjugated to r-phycoerythrin, and incubated in PBS for 25 min at 4° C. They are then again washed, before being fixed with a 4% paraformaldehyde solution. The cells are then permeabilized with saponin (Sigma) at 0.2% in PBS, and labeled with an anti-IFNγ monoclonal antibody conjugated to allophycocyanin (Pharmingen).
(§1) The cells are then analyzed by flow cytometry (FACSCalibur™ (Becton Dickinson) and CellQuest™ software).

HHD transgenic mice = experiment: Induction of specific CTLs in HHD transgenic mice by immunization with variant MAGE-A peptides; 51Cr cytotoxicity on peptide-loaded RMAS-HHD targets; assay type: in vivo; details: for recognition of RMAS-HHD targets loaded with the native peptide by CTLs induced with the corresponding variant: native peptide loaded on targets
Description: The immunogenicity of the variant peptides p174Y1V10, p262L2 and p248V9 was evaluated by generation of CTLs on HHD transgenic mice (PASCOLO et al., J. Exp. Med., 185, 2043, 1997). These mice are β2m−/−, D^b−/− and express an HLA-A*0201 single chain made up of the α1 and α2 domains of HLA-A*0201 and the α3 and intracellular domains of D^b, linked via its N-terminal to the C-terminal of human β2-microglobulin, via a peptide of 15 amino acids.
The HHD mice are given a subcutaneous injection at the base of the tail with 100 μg of each variant peptide to be tested, emulsified in Freund's incomplete adjuvant, in the presence of 140 μg of a T-helper epitope derived from the HBV “core” antigen (128-140, sequence […]).
After 11 days, spleen cells taken from the mice (5×10^7 cells in 10 ml) are stimulated in vitro with the test peptide (10 μM). On the 6th day of culture, the populations which respond are tested in order to determine a specific cytotoxicity. The cells which respond are restimulated in vitro at one-week intervals with 2×10^7 irradiated (3000 rads) HHD spleen cells and 1 to 0.1 μM of peptide in the presence of 50 IU/ml of recombinant IL2 (Proleukin, Chiron Corp).
Cytotoxicity assays are carried out 6 days after the final stimulation.
RMAS-HHD cells are used as targets to study the cytotoxicity. The cells are obtained by transfection of murine RMAS cells with the HHD construct as described by PASCOLO et al. (J. Exp. Med., 185, 2043, 1997).
These target cells are labeled with 100 μCi of ^51Cr for 90 minutes, and then washed three times and plated out in round-bottomed 96-well plates (3×10^3 cells/well in 100 μl of RPMI 1640+3% of fetal calf serum). They are loaded with various concentrations of test peptide (variant, native peptide, or irrelevant control peptide), at 37° C. for 90 minutes.
Next, 100 μl of the effector cells (effector cell/target cell ratio=40/1) are added to the wells and the plates are incubated at 37° C. for 4 hours. After incubation, 100 μl of supernatant are collected and the radioactivity is measured in a γ-counter.
The percentage of specific lysis is calculated by means of the formula: [(experimental ^51Cr release−spontaneous ^51Cr release)/(maximum ^51Cr release−spontaneous ^51Cr release)]×100. In all the experiments, the spontaneous release is less than 20% of the maximum release induced with 3N HCl.

[1] = tested on: CD8+ cells from normal donors; experiment: Induction of specific human CTLs in vitro from PBMCs of normal donors with p248V9, intracellular IFNγ production; assay type: cell-based; details: intracellular IFNγ production
Description: The ability of p248V9 to induce CTLs in vitro using peripheral blood mononuclear cells (PBMCs) from normal donors was tested as follows.
The PBMCs are obtained, from blood samples taken by leukocytapheresis on normal donors, after centrifugation at 2000 rpm for 20 min on a Ficoll/Hypaque (Amersham) gradient. After 3 washes in 0.9% NaCl, they are resuspended in complete medium (RPMI 1640 supplemented with 10% of heat-inactivated human AB serum, 40 μg/ml of gentamicin (Panpharma) and […] of L-glutamine (Gibco)), and incubated at 37° C. for 2 hours. After incubation, the non-adherent cells are removed. The adherent cells are differentiated into dendritic cells by culturing in a Teflon bag in a proportion of 3×10^6 cells/ml in complete medium supplemented with 500 IU/ml of GM-CSF (R & D Systems) and 500 IU/ml of IL-4 (R & D Systems). On the seventh day, maturing agents (100 ng/ml of polyI:C and 2 μg/ml of anti-CD40 antibody) are added to the culture. After 24 hours, the mature dendritic cells are loaded with the peptide p248V9 by incubation for 2 hours with 10 μM of peptide in the presence of 5 μg/ml of β2-microglobulin, and then irradiated at 3500 rads; they are then washed in order to remove the free peptide. CD8+ cells are isolated from the non-adherent cells by means of microbeads coupled to an anti-CD8 antibody (Miltenyi Biotec).
2×10^5 CD8+ cells are stimulated with 2×10^4 dendritic cells loaded with the peptide, in complete medium supplemented with 1000 IU/ml of IL-6 and 5 IU/ml of IL-12 in a final volume of 100 μl/well in a 96-well plate. From the seventh day, the cultures are stimulated in vitro each week with the dendritic cells loaded with the peptide, in the presence of 20 IU/ml of IL-2 and 10 ng/ml of IL-7. After the third restimulation, the CD8+ cells are collected and stimulated with EBV-transformed HLA-A*0201 allogenic B cells, in a 1/2 ratio, in the presence of 10 μM of peptide, for 16 hours.
The IFNγ-producing CD8+ cells are purified using a commercial kit (IFNγ secretion assay-cell enrichment and detection kit, Miltenyi Biotech). The cells thus purified are cultured for one week in complete medium supplemented with 20 IU/ml of IL-2 and 10 ng/ml of IL-7.
The response of these CD8+ cells to T2 cells loaded with one of the peptides p248V9, p248G9 or p248D9, or with a irrelevant peptide (HIVgag76), or to HLA-A*0201+MAGE-A+ tumor cells (M44 and M113) or HLA-A*0201+MAGE-A^− tumor cells (Caco-2), is evaluated by assaying the intracellular IFNγ production.
The CD8+ cells are incubated with the cells of the tumor line tested, in the presence of 20 μg/ml of Brefeldine-A (Sigma). […]
as §1

Row | Sequence | CTL response (specific lysis) to RMAS-HHD cells loaded with the peptide (RMAS-HHD target cells) | response of CD8+ cells of CTL line 1R5 to RMAS-HHD cells loaded with the peptide (RMAS-HHD cells) | RA (relative affinity for HLA-A*0201) (HLA-A*0201) | also measured
1 | CLGLSYDGLL [p174] | – | – | – | affinity for HLA-A*0201 (in words) (HLA-A*0201): low affinity
2 | TIWELMTFGG (listed as Homo sapiens) [HER4 911] | induce a CTL response | response of the CD8+ cells of the CTL line 1R5 | – | –
3 | TVWELMTFGA (listed as Homo sapiens) [HER2,3 911] | induce a CTL response | response of the CD8+ cells of the CTL line 1R5 | – | –
4 | TVWELMTFGS (listed as Homo sapiens) [HER1 911] | induce a CTL response | response of the CD8+ cells of the CTL line 1R5 | – | –
5 | YICTIDVYMV (not fully specified) [p945Y1V9] | – | – | >100 | –
6 | YLAARNVLV (not fully specified) [p845Y] | – | – | >100 | –
7 | YLEYRQVPD (listed as Homo sapiens) [p248D9] | – | – | – | affinity for HLA-A*0201 (in words) (HLA-A*0201): low affinity; recognition of RMAS-HHD targets loaded with the native peptide by CTLs induced with the corresponding variant (HHD transgenic mice): also against the two native peptides; response of p248V9-induced human CD8+ cells to T2 cells loaded with the peptide [1]: a response of the CD8+ cells
8 | YLEYRQVPG (listed as Homo sapiens) [p248G9] | – | – | – | affinity for HLA-A*0201 (in words) (HLA-A*0201): low affinity; recognition of RMAS-HHD targets loaded with the native peptide by CTLs induced with the corresponding variant (HHD transgenic mice): also against the two native peptides; response of p248V9-induced human CD8+ cells to T2 cells loaded with the peptide [1]: a response of the CD8+ cells
9 | YLFLWGPRA (not fully specified) [p262L2] | – | – | – | CTL response generated by immunization with the variant peptide (HHD transgenic mice; HHD mice, 100 μg s.c. in Freund's incomplete adjuvant, RMAS-HHD targets, effector/target 40/1): induces CTLs capable of recognizing this peptide, but not the native p262 peptide
10 | YLLEKGERL (not fully specified) [p933Y] | – | – | >100 | –
11 | YVKVLGSGV (not fully specified) [p722Y1V9] | – | – | >100 | –
12 | YVWELMTFGV (not fully specified) [p911Y1V9] | induce a CTL response | response of the CD8+ cells of the CTL line 1R5 | – | CTLs generated by the variant peptide, killing of loaded RMAS-HHD target cells (RMAS-HHD target cells; CTL lines 1R5 and 2R5, targets loaded with 10 μM peptide): generates CTLs which kill the RMAS-HHD target cells loaded with the variant peptide p911Y1V9, but also with the native peptides HER1 911, HER2,3 911 or HER4 911; CTLs induced by the variant peptide, recognition by IFNγ production (RMAS-HHD cells; CTL line 1R5): induces CTLs capable of recognizing this variant peptide, but also the native peptides from which it is derived
13 | YVWSYGVTV (not fully specified) [p904Y] | – | – | >100 | –

Source: patent publication US7419669B2, “Peptide epitopes common to antigens of the same multigene family” (Institut Gustave Roussy, priority 2002, dated 2008)
